From US20260070929A1, “METHODS AND COMPOSITIONS FOR MODULATING KRAS(G12D)” (Ranok Therapeutics (Hangzhou) Co. LTD., priority 2022, published 2026)
Where two headings read alike, the source gives them in different places.

Key:
[1] = target: T1, KRAS(G12D)/SOS1 (Homo sapiens, UniProt P01116, G12D); assay: KRAS(G12D)/SOS1 homogeneous time-resolved fluorescence (HTRF) assay; type: binding; conditions: absence of GTP; 4° C., 3 hr
T1 construct: purchased Cisbio 63ADK000CB17PEH
Outline: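 HTRF kit assay of compound-blocked KRAS(G12D)–SOS1 interaction, run without GTP. Compounds were tested as 3-fold dilutions from 20 µM to 1.02 nM and incubated with the reaction components for 3 hr at 4 °C, sealed. IC50 was taken as the concentration giving 50% of maximal inhibition.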

[2] = system: AGS gastric carcinoma cells [heterozygous G12D]; assay: Cancer cell line proliferation (CellTiter-Glo), AGS; type: cell-based; conditions: 72 hr treatment, read-out: AGS CTG (EC50)
Outline: (§1)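 4,000 cells/well; 72 hr pre-culture, 37° C./5% CO2. Cpd: 3-fold series, 20 μM–1.02 nM as prepared, 0.5% DMSO final; 72 hr exposure. Readout CellTiter-Glo; EC50 fit.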

[3] = system: A-427 lung carcinoma cells [heterozygous G12D]; assay: Cancer cell line proliferation (CellTiter-Glo), A-427; type: cell-based; conditions: A-427 cells, 72 hr treatment, read-out: A427 CTG (EC50)
Outline: as §1

[4] = system: ASPC1 pancreatic adenocarcinoma cells [homozygous G12D]; assay: Cancer cell line proliferation (CellTiter-Glo), ASPC1; type: cell-based; conditions: 72 hr treatment, read-out: ASPC-1 CTG (EC50)
Description: The following cancer cell lines were employed: AGS gastric carcinoma [heterozygous G12D](ATCC, CRL-1739); A-427 lung carcinoma [heterozygous G12D](ATCC, HTB-53); ASPC1 pancreatic adenocarcinoma [homozygous G12D](ATCC, CRL-1682) and SW1990 pancreatic adenocarcinoma [homozygous G12D](ATCC CRL-2172). Cell lines were cultured essentially according to ATCC recommendations.
AGS, A-427, ASPC1, SW1990, and GP2D cells were plated in 96-well tissue culture plates at 4,000 cells/well and incubated at 37° C./5% CO2 for 72 hr in 100 μl of media. 3-fold serial dilutions of each test compound were prepared ranging from 20 μM to 1.02 nM. Each cell line was then treated with test compounds at various concentrations with a final concentration of 0.5% DMSO/well, and then incubated at 37° C./5% CO2 for 72 hr. 100 µl of CellTiter-Glo® Reagent (Promega Corporation, Madison, WI) was added to each well and processed according manufacturer's protocol. Results were analyzed and EC50 values were calculated in GraphPad 7 software.

T1 sequence (P01116 1-188 isoform P01116-2 G12D): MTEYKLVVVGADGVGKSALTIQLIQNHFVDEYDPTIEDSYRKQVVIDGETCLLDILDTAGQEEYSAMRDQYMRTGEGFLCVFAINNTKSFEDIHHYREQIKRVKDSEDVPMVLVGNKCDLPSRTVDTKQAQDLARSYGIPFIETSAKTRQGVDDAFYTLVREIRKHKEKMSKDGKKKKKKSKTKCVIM

## C#Cc1cccc2cccc(-c3ncc4c(N5CC6CCC(C5)N6)nc(OC[C@@H]5C[C@H](N6CCN(Cc7ccc(-n8c(O)nnc8-c8cc(C(C)C)c(O)cc8O)cc7)CC6)CN5C)nc4c3F)c12 [Compound 26]
[1]
  IC50: < 0.1 µM
[2]; Homo sapiens
  EC50: 0.1 to 1 µM
[3]; Homo sapiens
  EC50: 0.1 to 1 µM
[4]; Homo sapiens, ASPC1, 72 h
  EC50: > 1 µM

## C#Cc1cccc2cccc(-c3ncc4c(N5CC6CCC(C5)N6)nc(OCC5CC[C@H](CN6CCN(C(=O)C7CCN(Cc8ccc(-n9c(O)nnc9-c9cc(C(C)C)c(O)cc9O)cc8)CC7)CC6)N5C)nc4c3F)c12 (some centres unmarked) [Compound 27]
[1]
  IC50: < 0.1 µM
[2]; Homo sapiens
  EC50: < 0.1 µM
[3]; Homo sapiens
  EC50: < 0.1 µM
[4]; Homo sapiens, ASPC1, 72 h
  EC50: 0.1 to 1 µM

## C#Cc1cccc2cccc(-c3ncc4c(N5CC6CCC(C5)N6)nc(OC[C@@H]5CC[C@H](CN6CCN(C(=O)C7CCN(Cc8ccc(-n9c(C(=O)NCC)nnc9-c9cc(C(C)C)c(O)cc9O)cc8)CC7)CC6)N5C)nc4c3F)c12 [Compound 28]
[1]
  IC50: < 0.1 µM
[2]; Homo sapiens
  EC50: < 0.1 µM
[3]; Homo sapiens
  EC50: < 0.1 µM
[4]; Homo sapiens, ASPC1, 72 h
  EC50: 0.1 to 1 µM

## CCNC(=O)c1nnc(-c2cc(C(C)C)c(O)cc2O)n1-c1ccc(CN2CCN([C@H]3C[C@@H](COc4nc(N5CC6CCC(C5)N6)c5cnc(-c6cccc7cccc(C)c67)c(F)c5n4)N(C)C3)CC2)cc1 [Compound 29]
[1]
  IC50: 0.1 to 1 µM
[2]; Homo sapiens
  EC50: < 0.1 µM
[3]; Homo sapiens
  EC50: < 0.1 µM
[4]; Homo sapiens, ASPC1, 72 h
  EC50: 0.1 to 1 µM

## CC(C)c1cc(-c2nnc(O)n2-c2ccc(CN3CCN([C@H]4C[C@@H](COc5nc(N6CC7CCC(C6)N7)c6cnc(-c7cccc8ccccc78)c(F)c6n5)N(C)C4)CC3)cc2)c(O)cc1O [Compound 30]
[1]
  IC50: > 1 µM
[2]; Homo sapiens
  EC50: 0.1 to 1 µM
[3]; Homo sapiens
  EC50: 0.1 to 1 µM
[4]; Homo sapiens, ASPC1, 72 h
  EC50: > 1 µM

## CCNC(=O)c1nnc(-c2cc(C(C)C)c(O)cc2O)n1-c1ccc(CN2CCN([C@H]3C[C@@H](COc4nc(N5CC6CCC(C5)N6)c5cnc(-c6cc(O)cc7ccccc67)c(F)c5n4)N(C)C3)CC2)cc1 [Compound 31]
[1]
  IC50: < 0.1 µM
[2]; Homo sapiens
  EC50: 0.1 to 1 µM
[3]; Homo sapiens
  EC50: 0.1 to 1 µM
[4]; Homo sapiens, ASPC1, 72 h
  EC50: > 1 µM

## CC(C)c1cc(-c2nnc(O)n2-c2ccc(CN3CCC(C(=O)C4CCN([C@H]5C[C@@H](COc6nc(N7CC8CCC(C7)N8)c7cnc(-c8cc(O)cc9ccccc89)c(F)c7n6)N(C)C5)CC4)CC3)cc2)c(O)cc1O [Compound 32]
[1]
  IC50: < 0.1 µM
[2]; Homo sapiens
  EC50: 0.1 to 1 µM
[3]; Homo sapiens
  EC50: 0.1 to 1 µM
[4]; Homo sapiens, ASPC1, 72 h
  EC50: > 1 µM

## CC(C)c1cc(-c2nnc(O)n2-c2ccc(CN3CCN([C@H]4C[C@@H](COc5nc(N6CC7CCC(C6)N7)c6cnc(-c7cc(O)cc8ccccc78)c(F)c6n5)N(C)C4)CC3)cc2)c(O)cc1O [Compound 33]
[1]
  IC50: < 0.1 µM
[2]; Homo sapiens
  EC50: 0.1 to 1 µM
[3]; Homo sapiens
  EC50: > 1 µM
[4]; Homo sapiens, ASPC1, 72 h
  EC50: > 1 µM

## CCNC(=O)c1nnc(-c2cc(C(C)C)c(O)cc2O)n1-c1ccc(CN2CCN([C@H]3C[C@@H](COc4nc(N5CC6CCC(C5)N6)c5cnc(-c6cccc7ccccc67)c(F)c5n4)N(C)C3)CC2)cc1 [Compound 34]
[1]
  IC50: > 1 µM
[2]; Homo sapiens
  EC50: < 0.1 µM
[3]; Homo sapiens
  EC50: 0.1 to 1 µM
[4]; Homo sapiens, ASPC1, 72 h
  EC50: 0.1 to 1 µM

## C#Cc1cccc2cccc(-c3ncc4c(N5CC6CCC(C5)N6)nc(OC[C@@H]5C[C@H](N6CCN(Cc7ccc(-n8c(C(=O)NCC)nnc8-c8cc(C(C)C)c(O)cc8O)cc7)CC6)CN5C)nc4c3F)c12 [Compound 36]
[1]
  IC50: < 0.1 µM
[2]; Homo sapiens
  EC50: < 0.1 µM
[3]; Homo sapiens
  EC50: 0.1 to 1 µM
[4]; Homo sapiens, ASPC1, 72 h
  EC50: 0.1 to 1 µM

## Cc1cccc2cccc(-c3ncc4c(N5CC6CCC(C5)N6)nc(OC[C@@H]5C[C@H](N6CCN(Cc7ccc8c(c7)CN(C(=O)c7cc(C(C)C)c(O)cc7O)C8)CC6)CN5C)nc4c3F)c12 [Compound 37]
[1]
  IC50: < 0.1 µM
[2]; Homo sapiens
  EC50: 0.1 to 1 µM
[3]; Homo sapiens
  EC50: 0.1 to 1 µM
[4]
  EC50: 0.1 to 1 µM

## CCNC(=O)c1nnc(-c2cc(C(C)C)c(O)cc2O)n1-c1ccc(CN2CCC(C(=O)N3CCN([C@H]4C[C@@H](COc5nc(N6CC7CCC(C6)N7)c6cnc(-c7cc(O)cc8ccccc78)c(F)c6n5)N(C)C4)CC3)CC2)cc1 [Compound 38]
[1]
  IC50: < 0.1 µM
[2]; Homo sapiens
  EC50: 0.1 to 1 µM
[3]; Homo sapiens
  EC50: 0.1 to 1 µM
[4]; Homo sapiens, ASPC1, 72 h
  EC50: 0.1 to 1 µM

## C#Cc1cccc2cccc(-c3ncc4c(N5CC6CCC(C5)N6)nc(OC[C@@H]5CC[C@H](CN6CCN(Cc7ccc8c(c7)CN(C(=O)c7cc(C(C)C)c(O)cc7O)C8)CC6)N5C)nc4c3F)c12 [Compound 39]
[1]
  IC50: < 0.1 µM
[2]; Homo sapiens
  EC50: 0.1 to 1 µM
[3]; Homo sapiens
  EC50: 0.1 to 1 µM
[4]; Homo sapiens, ASPC1, 72 h
  EC50: > 1 µM

## CCNC(=O)c1nnc(-c2cc(C(C)C)c(O)cc2O)n1-c1ccc(CN(C)[C@@H]2CN3CCC[C@]3(COc3nc(N4CC5CCC(C4)N5)c4cnc(-c5cc(O)cc6ccccc56)c(F)c4n3)C2)cc1 [Compound 40]
[1]
  IC50: < 0.1 µM
[2]; Homo sapiens
  EC50: 0.1 to 1 µM
[3]; Homo sapiens
  EC50: 0.1 to 1 µM
[4]; Homo sapiens, ASPC1, 72 h
  EC50: > 1 µM

## CCNC(=O)c1nnc(-c2cc(C(C)C)c(O)cc2O)n1-c1ccc(CN(C)[C@@H]2CN3CCC[C@@]3(COc3nc(N4CC5CCC(C4)N5)c4cnc(-c5cc(O)cc6ccccc56)c(F)c4n3)C2)cc1 [Compound 41]
[1]
  IC50: < 0.1 µM
[2]; Homo sapiens
  EC50: 0.1 to 1 µM
[3]; Homo sapiens
  EC50: > 1 µM
[4]; Homo sapiens, ASPC1, 72 h
  EC50: 0.1 to 1 µM

## CC(C)c1cc(-c2nnc(O)n2-c2ccc(CN(C)[C@@H]3CN4CCC[C@]4(COc4nc(N5CC6CCC(C5)N6)c5cnc(-c6cc(O)cc7ccccc67)c(F)c5n4)C3)cc2)c(O)cc1O [Compound 42]
[1]
  IC50: < 0.1 µM
[2]; Homo sapiens
  EC50: > 1 µM
[3]; Homo sapiens
  EC50: > 1 µM
[4]; Homo sapiens, ASPC1, 72 h
  EC50: > 1 µM

## CC(C)c1cc(-c2nnc(O)n2-c2ccc(CN(C)[C@@H]3CN4CCC[C@]4(COc4nc(N5CC6CCC(C5)N6)c5cnc(-c6cc(O)cc7ccccc67)c(F)c5n4)C3)cc2)c(O)cc1O [Compound 43]
[1]
  IC50: < 0.1 µM
[2]
  EC50: > 1 µM
[3]
  EC50: > 1 µM
[4]
  EC50: > 1 µM

## CC(C)c1cc(C(=O)N2Cc3ccc(CN(C)[C@H]4CN5CCC[C@@]5(COc5nc(N6CC7CCC(C6)N7)c6cnc(-c7cc(O)cc8ccccc78)c(F)c6n5)C4)cc3C2)c(O)cc1O [Compound 44]
[1]
  IC50: < 0.1 µM
[2]; Homo sapiens
  EC50: 0.1 to 1 µM
[3]; Homo sapiens
  EC50: 0.1 to 1 µM
[4]; Homo sapiens, ASPC1, 72 h
  EC50: > 1 µM

## CC(C)c1cc(C(=O)N2Cc3ccc(CN(C)[C@H]4CN5CCC[C@]5(COc5nc(N6CC7CCC(C6)N7)c6cnc(-c7cc(O)cc8ccccc78)c(F)c6n5)C4)cc3C2)c(O)cc1O [Compound 45]
[1]
  IC50: 0.1 to 1 µM
[2]; Homo sapiens
  EC50: 0.1 to 1 µM
[3]; Homo sapiens
  EC50: 0.1 to 1 µM
[4]; Homo sapiens, ASPC1, 72 h
  EC50: > 1 µM

## CC(C)c1cc(C(=O)N2Cc3ccc(CN4CCC(C(=O)N(C)[C@H]5CN6CCC[C@@]6(COc6nc(N7CC8CCC(C7)N8)c7cnc(-c8cc(O)cc9ccccc89)c(F)c7n6)C5)CC4)cc3C2)c(O)cc1O [Compound 49]
[1]
  IC50: < 0.1 µM
[2]; Homo sapiens
  EC50: 0.1 to 1 µM
[3]; Homo sapiens
  EC50: 0.1 to 1 µM
[4]; Homo sapiens, ASPC1, 72 h
  EC50: > 1 µM

## CC(C)c1cc(C(=O)N2Cc3ccc(CN4CCC(C(=O)N(C)[C@H]5CN6CCC[C@]6(COc6nc(N7CC8CCC(C7)N8)c7cnc(-c8cc(O)cc9ccccc89)c(F)c7n6)C5)CC4)cc3C2)c(O)cc1O [Compound 50]
[1]
  IC50: < 0.1 µM
[2]; Homo sapiens
  EC50: 0.1 to 1 µM
[3]; Homo sapiens
  EC50: 0.1 to 1 µM
[4]; Homo sapiens, ASPC1, 72 h
  EC50: 0.1 to 1 µM

## Cc1cccc(-c2ncc3c(N4CC5CCC(C4)N5)nc(OC[C@@H]4C[C@H](N5CCN(Cc6ccc(-n7c(O)nnc7-c7cc(C(C)C)c(O)cc7O)cc6)CC5)CN4C)nc3c2F)c1C [Compound 52]
[1]
  IC50: > 1 µM
[2]; Homo sapiens
  EC50: 0.1 to 1 µM
[3]; Homo sapiens
  EC50: 0.1 to 1 µM
[4]; Homo sapiens, ASPC1, 72 h
  EC50: > 1 µM

## CCNC(=O)c1nnc(-c2cc(C(C)C)c(O)cc2O)n1-c1ccc(CN2CCN([C@H]3C[C@@H](COc4nc(N5CC6CCC(C5)N6)c5cnc(-c6cccc(C)c6C)c(F)c5n4)N(C)C3)CC2)cc1 [Compound 53]
[1]
  IC50: < 0.1 µM
[2]; Homo sapiens
  EC50: < 0.1 µM
[3]; Homo sapiens
  EC50: 0.1 to 1 µM
[4]; Homo sapiens, ASPC1, 72 h
  EC50: 0.1 to 1 µM
